Source: patent US20200369728A1, “PEPTIDOMIMETIC MACROCYCLES AND USES THEREOF” (Aileron Therapeutics, Inc., priority 2015, published 2020)
Bridge positions count the residues as written; N and C are the ends. Square brackets hold non-standard residues; d marks the D form. Peptide text beside a SMILES is read from it. R8 = C=CCCCCCC[C@@](C)(N)C(=O)O; Cha = N[C@@H](CC1CCCCC1)C(=O)O; Chg = N[C@H](C(=O)O)C1CCCCC1; hLeu = CC(C)CC[C@H](N)C(=O)O; S5 = C=CCCC[C@](C)(N)C(=O)O; Nle = CCCC[C@H](N)C(=O)O; Ac3c = NC1(C(=O)O)CC1; Aib = CC(C)(N)C(=O)O

Test system: SJSA-1 cells
Assay: Cell lysis by peptidomimetic macrocycles (LDH release)
Type: cell-based
Details: SJSA-1, 1 h
Protocol: SJSA-1 cells were plated out one day in advance in clear flat-bottom plates (Costar, catalog number 353072) at 7500 cells/well with 100 ul/well of growth media, leaving row H columns 10-12 empty for media alone. On the day of the assay, media was exchanged with RPMI 1% FBS media, 90 uL of media per well.
10 mM stock solutions of the peptidomimetic macrocycles were prepared in 100% DMSO. Peptidomimetic macrocycles were then diluted serially in 100% DMSO, and then further diluted 20-fold in sterile water to prepare working stock solutions in 5% DMSO/water of each peptidomimetic macrocycle at concentrations ranging from 500 μM to 62.5 μM.
10 μL of each compound was added to the 90 uL of SJSA-1 cells to yield final concentrations of 50 μM to 6.25 μM in 0.5% DMSO-containing media. The negative control (non-lytic) sample was 0.5% DMSO alone and positive control (lytic) samples include 10 μM Melittin and 1% Triton X-100.
Cell plates were incubated for 1 hour at 37° C. After the 1 hour incubation, the morphology of the cells is examined by microscope and then the plates were centrifuged at 1200 rpm for 5 minutes at room temperature. 40 μL of supernatant for each peptidomimetic macrocycle and control sample is transferred to clear assay plates. LDH release is measured using the LDH cytotoxicity assay kit from Caymen, catalog #1000882.

Row | Compound | 6.25 μM % Lysed cells (1 h LDH) | 25 μM % Lysed cells (1 h LDH) | 50 μM % Lysed cells (1 h LDH)
1 | CC(=O)N[C@@H](CC(C)C)C(=O)N[C@H](C(=O)N[C@@H](Cc1ccccc1)C(=O)N[C@]1(C)CCCCCCC=CCCC[C@@](C)(C(=O)N[C@@H](CO)C(=O)N[C@@H](C)C(=O)N[C@@H](CCC(C)C)C(N)=O)NC(=O)[C@H](CC(C)C)NC(=O)[C@H](CCC(N)=O)NC(=O)[C@H](C)NC(=O)[C@H](Cc2c[nH]c3ccccc23)NC(=O)[C@H](Cc2ccc(O)cc2)NC(=O)[C@H](C)NC1=O)[C@@H](C)O [compound 6] (Ac-LTF[R8]AYWAQL[S5]SA[hLeu]-NH2; staple 4-11) | 1% | 1% | 1%
2 | CC(=O)N[C@@H](CC(C)C)C(=O)N[C@H](C(=O)N[C@@H](Cc1ccccc1)C(=O)N[C@]1(C)CCCCCCC=CCCC[C@@](C)(C(=O)N[C@@H](CO)C(=O)N[C@@H](C)C(=O)N[C@H](C(N)=O)C2CCCCC2)NC(=O)[C@H](CC(C)C)NC(=O)[C@H](CCC(N)=O)NC(=O)[C@H](C)NC(=O)[C@H](Cc2c[nH]c3ccccc23)NC(=O)[C@H](Cc2ccc(O)cc2)NC(=O)[C@H](C)NC1=O)[C@@H](C)O [compound 9] (Ac-LTF[R8]AYWAQL[S5]SA[Chg]-NH2; staple 4-11) | −3% | 0% | 2%
3 | CC(=O)N[C@@H](Cc1ccccc1)C(=O)N[C@]1(C)CCCCCCC=CCCC[C@@](C)(C(=O)N[C@@H](C)C(=O)N[C@@H](C)C(=O)N[C@@H](CC(C)C)C(N)=O)NC(=O)[C@H](CC(C)C)NC(=O)C2(CC2)NC(=O)[C@H](CCC(=O)O)NC(=O)[C@H](Cc2c[nH]c3ccccc23)NC(=O)[C@H](Cc2ccc(O)cc2)NC(=O)[C@H](C)NC1=O [compound 15] (Ac-F[R8]AYWE[Ac3c]L[S5]AAL-NH2; staple 2-9) | 1% | 2% | 5%
4 | CC(=O)N[C@@H](Cc1ccccc1)C(=O)N[C@]1(C)CCCCCCC=CCCC[C@@](C)(C(=O)N[C@@H](C)C(=O)N[C@@H](C)C(=O)N[C@@H](Cc2ccccc2)C(N)=O)NC(=O)[C@H](CC(C)C)NC(=O)C2(CC2)NC(=O)[C@H](CCC(=O)O)NC(=O)[C@H](Cc2c[nH]c3ccccc23)NC(=O)[C@H](Cc2ccc(O)cc2)NC(=O)[C@H](C)NC1=O [compound 18] (Ac-F[R8]AYWE[Ac3c]L[S5]AAF-NH2; staple 2-9) | 0% | 2% | 4%
5 | CC[C@H](C)[C@H](NC(=O)[C@H](C)NC(=O)[C@H](C)NC(=O)[C@]1(C)CCCC=CCCCCCC[C@@](C)(NC(=O)[C@H](Cc2ccccc2)NC(C)=O)C(=O)N[C@@H](C)C(=O)N[C@@H](Cc2ccc(O)cc2)C(=O)N[C@@H](Cc2c[nH]c3ccccc23)C(=O)N[C@@H](CCC(=O)O)C(=O)NC2(CC2)C(=O)N[C@@H](CC(C)C)C(=O)N1)C(N)=O [compound 19] (Ac-F[R8]AYWE[Ac3c]L[S5]AAI-NH2; staple 2-9) | 2% | 3% | 21%
6 | CC(=O)N[C@@H](Cc1ccccc1)C(=O)N[C@]1(C)CCCCCCC=CCCC[C@@](C)(C(=O)N[C@@H](C)C(=O)N[C@@H](C)C(=O)NC(C)(C)C(N)=O)NC(=O)[C@H](CC(C)C)NC(=O)C2(CC2)NC(=O)[C@H](CCC(=O)O)NC(=O)[C@H](Cc2c[nH]c3ccccc23)NC(=O)[C@H](Cc2ccc(O)cc2)NC(=O)[C@H](C)NC1=O [compound 22] (Ac-F[R8]AYWE[Ac3c]L[S5]AA[Aib]-NH2; staple 2-9) | 0% | 0% | 0%
7 | CC(=O)N[C@@H](Cc1c[nH]cn1)C(=O)N[C@@H](CC(C)C)C(=O)N[C@H](C(=O)N[C@@H](Cc1ccccc1)C(=O)N[C@]1(C)CCCCCCC=CCCC[C@@](C)(C(=O)N[C@@H](C)C(=O)N[C@@H](C)C(=O)N[C@@H](CCC(C)C)C(=O)N[C@@H](C)C(N)=O)NC(=O)[C@H](CC(C)C)NC(=O)[C@H](CCC(N)=O)NC(=O)[C@H](Cc2c[nH]cn2)NC(=O)[C@H](Cc2c[nH]c3ccccc23)NC(=O)[C@H](Cc2c[nH]cn2)NC(=O)[C@H](Cc2c[nH]cn2)NC1=O)[C@@H](C)O [compound 32] (Ac-HLTF[R8]HHWHQL[S5]AA[hLeu]A-NH2; staple 5-12) | 0% | 2% | 0%
8 | CCCC[C@H](NC(=O)[C@H](C)NC(=O)[C@H](CCC(N)=O)NC(=O)[C@H](Cc1c[nH]cn1)NC(=O)[C@]1(C)CCCC=CCCCCCC[C@@](C)(NC(=O)[C@H](Cc2ccccc2)NC(C)=O)C(=O)N[C@@H](C)C(=O)N[C@@H](Cc2ccc(O)cc2)C(=O)N[C@@H](Cc2c[nH]c3ccccc23)C(=O)N[C@@H](CO)C(=O)N[C@@H](C)C(=O)N[C@@H](CC(C)C)C(=O)N1)C(N)=O [compound 39] (Ac-F[R8]AYWSAL[S5]HQA[Nle]-NH2; staple 2-9) | 0% | 0% | 3%
9 | CC(=O)N[C@@H](Cc1ccccc1)C(=O)N[C@]1(C)CCCCCCC=CCCC[C@@](C)(C(=O)N[C@@H](Cc2c[nH]cn2)C(=O)N[C@@H](CCCNC(=N)N)C(=O)N[C@@H](Cc2ccccc2)C(=O)N[C@@H](CC2CCCCC2)C(N)=O)NC(=O)[C@H](CC(C)C)NC(=O)[C@H](CCC(N)=O)NC(=O)[C@H](Cc2c[nH]cn2)NC(=O)[C@H](Cc2c[nH]c3ccccc23)NC(=O)[C@H](Cc2c[nH]cn2)NC(=O)[C@H](Cc2c[nH]cn2)NC1=O [compound 55] (Ac-F[R8]HHWHQL[S5]HRF[Cha]-NH2; staple 2-9) | 1% | 9% | 13%
10 | CC(=O)N[C@@H](CC(C)C)C(=O)N[C@H](C(=O)N[C@@H](Cc1ccccc1)C(=O)N[C@]1(C)CCCCCCC=CCCC[C@@](C)(C(=O)N[C@@H](C)C(=O)N[C@@H](Cc2c[nH]cn2)C(=O)N[C@@H](Cc2ccccc2)C(=O)N[C@@H](C)C(N)=O)NC(=O)[C@H](CC(C)C)NC(=O)[C@H](CCC(N)=O)NC(=O)[C@H](C(C)C)NC(=O)[C@H](Cc2c[nH]c3ccccc23)NC(=O)[C@H](Cc2c[nH]cn2)NC(=O)[C@H](C)NC1=O)[C@@H](C)O [compound 190] (Ac-LTF[R8]AHWVQL[S5]AHFA-NH2; staple 4-11) | −1% | 0% | 1%
11 | CC(=O)N[C@@H](CC(C)C)C(=O)N[C@H](C(=O)N[C@@H](Cc1ccccc1)C(=O)N[C@]1(C)CCCCCCC=CCCC[C@@](C)(C(=O)N[C@@H](C)C(=O)N[C@@H](C)C(=O)N[C@@H](Cc2c[nH]c3ccccc23)C(=O)N[C@H](C)C(N)=O)NC(=O)[C@H](CC(C)C)NC(=O)[C@H](CCC(N)=O)NC(=O)[C@H](C)NC(=O)[C@H](Cc2c[nH]c3ccccc23)NC(=O)[C@H](Cc2ccc(O)cc2)NC(=O)[C@H](C)NC1=O)[C@@H](C)O [compound 211] (Ac-LTF[R8]AYWAQL[S5]AAW[dA]-NH2; staple 4-11) | 5% | 3% | 1%
12 | CC(C)CC[C@@H]1NC(=O)[C@H](CCC(N)=O)NC(=O)[C@H](C)NC(=O)[C@H](Cc2c[nH]c3ccccc23)NC(=O)[C@H](Cc2ccc(O)cc2)NC(=O)[C@H](CCC(=O)O)NC(=O)[C@](C)(NC(=O)[C@H](Cc2ccccc2)NC(=O)[C@@H](NC(=O)[C@H](CC(C)C)NC(=O)CN(C)C)[C@@H](C)O)CCCCCCC=CCCC[C@@](C)(C(=O)N[C@@H](CO)C(=O)N[C@@H](C)C(=O)N[C@@H](C)C(N)=O)NC1=O [compound 279] | 6% | 5% | 6%
13 | CCCCCC(=O)N[C@@H](CC(C)C)C(=O)N[C@H](C(=O)N[C@@H](Cc1ccccc1)C(=O)N[C@]1(C)CCCCCCC=CCCC[C@@](C)(C(=O)N[C@@H](CO)C(=O)N[C@@H](C)C(=O)N[C@@H](C)C(N)=O)NC(=O)[C@H](CCC(C)C)NC(=O)[C@H](CCC(N)=O)NC(=O)[C@H](C)NC(=O)[C@H](Cc2c[nH]c3ccccc23)NC(=O)[C@H](Cc2ccc(O)cc2)NC(=O)[C@H](CCC(=O)O)NC1=O)[C@@H](C)O [compound 280] | 5% | 6% | 18%
14 | CC(C)CC[C@@H]1NC(=O)[C@H](CCC(N)=O)NC(=O)[C@H](C)NC(=O)[C@H](Cc2c[nH]c3ccccc23)NC(=O)[C@H](Cc2ccc(O)cc2)NC(=O)[C@H](CCC(=O)O)NC(=O)[C@](C)(NC(=O)[C@H](Cc2ccccc2)NC(=O)[C@@H](NC(=O)[C@H](CC(C)C)NC(=O)C(C)(C)C)[C@@H](C)O)CCCCCCC=CCCC[C@@](C)(C(=O)N[C@@H](CO)C(=O)N[C@@H](C)C(=O)N[C@@H](C)C(N)=O)NC1=O [compound 284] | 5% | 5% | 6%
15 | CCCC[C@H](NC(=O)[C@H](C)NC(=O)[C@H](C)NC(=O)[C@]1(C)CCCC=CCCCCCC[C@@](C)(NC(=O)[C@H](Cc2ccccc2)NC(=O)[C@@H](NC(=O)[C@H](CC(C)C)NC(C)=O)[C@@H](C)O)C(=O)N[C@@H](C)C(=O)N[C@@H](Cc2ccc(O)cc2)C(=O)N[C@@H](Cc2c[nH]c3ccccc23)C(=O)N[C@@H](Cc2cc(=O)oc3cc(OC)c(OC)cc23)C(=O)N[C@@H](CCC(N)=O)C(=O)N[C@@H](CC(C)C)C(=O)N1)C(=O)N[C@@H](C)C(N)=O [compound 415] | 4% | 2% | 2%
